Measured values from US20260096556A1, “AGRICULTURAL METHODS” (priority 2022, published 2026).

Test system: Phakopsora pachyrhizi
Test: Field trials: foliar spray on soybean plants, severity of infection from Phakopsora pachyrhizi
Format: in vivo
Settings: for % control (% reduction of the area under the disease pressure curve): Brazil, soybean, 3 foliar applications, 75 g ai/ha
Procedure: Various compounds were formulated (a commercial EC250 formulation for prothioconazole, an SC100 formulation for compound X.04), diluted into a spray solution including an adjuvant, and applied to soybean plants in a foliar broadcast spray using a handheld horizontal boom sprayer. Three applications were made over the course of the growing season, starting approximately 45 days after crop emergence, with following applications at approximately 14 day intervals. Trials were conducted across five locations in Brazil.
Assessments of severity of infection from Phakopsora pachyrhizi were made at approximately weekly intervals, based on the percentage of leaf area covered by disease lesions. This is expressed in {Table B1} as a final % severity. The performance of the treatments were calculated as % reduction of the area under the disease pressure curve for the treated plots in the trial, based on assessments up to 28 days after the third application. Samples were taken from diseased leaves in the untreated plots and evaluated for the % population frequency of the F129L mutation that generates resistance to strobilurin fungicides.
Samples of leaves were taken from the untreated plots and DNA extracted from disease lesions. qPCR analysis was conducted to determine the frequency of F129L within the sampled pathogen population.

[1] = Trial A, F129L frequency in untreated 94.33%, untreated severity 97.50%
[2] = Trial B, F129L frequency in untreated 93.67%, untreated severity 83.10%
[3] = Trial C, F129L frequency in untreated 93.00%, untreated severity 96.80%
[4] = Trial D, F129L frequency in untreated 22.00%, untreated severity 74.2%
[5] = Trial E, F129L frequency in untreated 44.67%, untreated severity 95.00%

`OC(Cc1ccccc1Cl)(Cn1nc[nH]c1=S)C1(Cl)CC1` (centres unmarked) [prothioconazole, reference compound] was tested, and the “% control (% reduction of the area under the disease pressure curve)” value [1] was 72.66%, the “% control (% reduction of the area under the disease pressure curve)” value [2] was 28.86% and the “% control (% reduction of the area under the disease pressure curve)” value [3] was 63.89%. The “% control (% reduction of the area under the disease pressure curve)” value [4] was 72.53% and the “% control (% reduction of the area under the disease pressure curve)” value [5] was 67.30%.

`CO/C=C(\Oc1cc(C2CCCCC2)ccc1C)C(=O)OC` [compound X.04, methyl (Z)-2-(5-cyclohexyl-2-methyl-phenoxy)-3-methoxy-prop-2-enoate] was tested, and the “% control (% reduction of the area under the disease pressure curve)” value [1] was 91.00%, the “% control (% reduction of the area under the disease pressure curve)” value [2] was 45.50% and the “% control (% reduction of the area under the disease pressure curve)” value [3] was 95.46%. For the same compound, the “% control (% reduction of the area under the disease pressure curve)” value [4] was 71.39%, the “% control (% reduction of the area under the disease pressure curve)” value [5] was 63.48% and the “performance compared to prothioconazole and to a commercial standard containing prothioconazole and a standard strobilurin fungicide” value (trials with a high (>90%) frequency of F129L in the untreated population) was “superior”.
